# In US20040191763A1, “HBV mutations associated with reduced susceptibility to adefovir” (priority 2002, published 2004):
# Where two headings read alike, the source gives them in different places.
# Tests used:
# [1] = system: serum HBV DNA; experiment: Phase 3 clinical study GS-98-438, HBeAg negative chronic hepatitis B patients; format: in vivo, human
# Method: The median serum HBV DNA levels declined by 3.5 and 3.9 log10 copies/mL from baseline to week 48 in the ADV 10 mg dose groups in HBeAg positive (Study GS-98-437) and in HBeAg negative (Study GS-98-438) chronic hepatitis B patients, respectively.
# Adefovir resistance surveillance was performed in a blinded manner in HBeAg negative chronic hepatitis B patients treated for 96 weeks in a Phase 3 double-blind, randomized, placebo-controlled clinical study (GS-98-438) of adefovir dipivoxil 10 mg (ADV). The analysis included 79 patients who received ADV 10 mg daily for the first 48 weeks and were randomized to also receive ADV 10 mg during the second 48 weeks.
# The reverse transcriptase (RT) domain of the HBV polymerase gene (rt1 to rt344) was sequenced for HBV DNA extracted from baseline and week 96 serum samples (or the last on-study sample) for the 79 patients treated continuously with ADV for 96 weeks if the samples had detectable serum HBV DNA (≧1000 copies/mL by Roche Amplicor™ PCR assay) at the time points tested.
# Study GS-98-438 is a randomized, double-blind, placebo-controlled Phase 3 clinical study of the safety and efficacy of ADV for the treatment of patients with HBeAg negative/anti-HBe positive/HBV DNA positive chronic hepatitis B. A total of 184 patients received at least one dose of study medication during the first 48 weeks (n=61 and 123 for the placebo and ADV 10 mg groups, respectively). During the second 48 weeks, all placebo patients switched to ADV 10 mg daily while the ADV-treated patients were re-randomized to either continue ADV or receive placebo at a 2:1 ratio. Accordingly, all patients who received at least one dose of study drug during the second 48 weeks are classified into three groups: PLB-ADV (n=60), ADV-ADV (n=79), and ADV-PLB (n=40).
# A virology substudy of Study GS-98-438 included all patients in the ADV 10 mg-ADV 10 mg group (n=79). The RT domain of the HBV polymerase gene from banked serum samples from these patients was genotypically analyzed at baseline, and either at week 96, or upon early termination during the second 48 weeks.
# If the week 96 serum HBV DNA value was not available for a patient, the closest serum HBV DNA value prior to week 96 was used. All week 96 and the last on-drug samples are referred to as week 96 samples hereafter. Note that Roche Molecular Systems raised the lower limit of quantification of the HBV DNA PCR assay from 400 copies/mL to 1,000 copies/mL after Gilead completed the week 48 analyses for study 438.
# [2] = system: serum HBV DNA; settings: ADV 10 mg daily, HBeAg negative patients; cited from earlier work
# [3] = system: serum HBV DNA; settings: ADV 10 mg daily, HBeAg positive patients; cited from earlier work
# [4] = system: rtK241E+rtK318Q mutant HBV; experiment: Whole HBV genome cell culture drug susceptibility assay, rtK241E+rtK318Q patient-derived clones; settings: adefovir, patient 0370-3503, rtK241E + rtK318Q
# Method: Drug susceptibility of patient-derived clones was analyzed by transient transfection into HepG2 cells.
# To investigate if these conserved site mutations conferred resistance to adefovir, adefovir susceptibility of HBV isolates derived from the above five patients was evaluated using a whole HBV genome cell culture assay as described above.
# [5] = system: rtN236T mutant HBV; experiment: Whole HBV genome cell culture drug susceptibility assay, rtN236T patient-derived clones; format: cell-based, hepatitis B virus; settings: for IC50 Fold Change (Week96/Baseline): adefovir; for susceptibility of the rtN236T mutant (in words): in vitro
# [6] = system: wild-type HBV (baseline patient-derived clones); experiment: Whole HBV genome cell culture drug susceptibility assay, baseline wild-type patient-derived clones; format: cell-based, hepatitis B virus
# [7] = system: rtA181T mutant lab HBV strain (ayw); experiment: Adefovir susceptibility of standard HBV lab strain carrying rtA181T; format: cell-based, hepatitis B virus
# Excerpt: (§1) One patient (0454-2506) with the rtN236T mutation also developed a second conserved site mutation rtA181T at week 96. However, all week 96 isolates derived from the patient encoding both rtN236T and rtA181T were replication deficient in vitro; the reason for this is unclear. To assess the adefovir sensitivity of HBV containing both rtN236T and rtA181Tmutations, an artificial construct was obtained by modifying an existing patient-derived HBV clone. The rtA181T mutation was introduced by site-directed mutagenesis into replicating HBV clones from patient 0454-2506 that already encoded rtN236T. The resulting double mutants were replication competent and were used for adefovir susceptibility testing. […] The rtA181T mutation was also introduced into a standard HBV lab strain (genotyped, ayw) to assess the individual contribution of the rtA181T mutation.
# [8] = system: wild-type lab HBV strain (ayw); experiment: Adefovir susceptibility of standard HBV lab strain, wild-type; format: cell-based, hepatitis B virus
# Excerpt: as §1
# [9] = system: rtN236T+rtA181T double mutant HBV; experiment: Adefovir susceptibility of rtN236T+rtA181T double mutant made by site-directed mutagenesis of patient-derived clone; format: cell-based, hepatitis B virus
# Excerpt: as §1
# [10] = system: rtA181V mutant HBV; experiment: Whole HBV genome cell culture drug susceptibility assay, rtA181V patient-derived clones; format: cell-based, hepatitis B virus; settings: for IC50: Hepatitis B virus, HepG2, 168 h, HepG2, 7 days; for IC50 Fold Change (Week96/Baseline): adefovir
# Excerpt: . The rtA181V mutation appears to confer a low degree of reduced susceptibility to adefovir relative to the adefovir-resistant rtN236T mutation (7- to 14-fold resistance to adefovir in vitro). […] In contrast, serum HBV DNA in the other patient (0624-1517) remained suppressed below 1000 copies/mL after a period of treatment interruption during which this mutation was detected (FIG. 2). […] The clinical significance of the rtA181V mutation is unclear based on the in vitro drug susceptibility data and the disparate clinical profiles of the two patients, although as noted it would have diagnostic utility for HBV infection.
# [11] = target: recombinant HBV polymerase (Hepatitis B virus genotype D subtype ayw, UniProt P03156); settings: competitive with respect to dATP; read-out: inhibition constant (Ki); cited from earlier work
# [12] = Hepatitis B virus, read-out: IC50 rtN23T Mutant, patient-derived HBV strain carrying rtN236T (Table 7)
# [13] = patient-derived HBV strain carrying rtN236T (Table 7)
# [14] = Hepatitis B virus, read-out: IC50 Wild-type, patient-derived HBV strain, wild-type (Table 7)
# [15] = patient-derived HBV strain carrying rtN236T (Table 7), read-out: IC50 rtN23T Mutant
# [16] = patient-derived HBV strain, wild-type (Table 7), read-out: IC50 Wild-type
# Sequence of recombinant HBV polymerase (P03156 whole entry): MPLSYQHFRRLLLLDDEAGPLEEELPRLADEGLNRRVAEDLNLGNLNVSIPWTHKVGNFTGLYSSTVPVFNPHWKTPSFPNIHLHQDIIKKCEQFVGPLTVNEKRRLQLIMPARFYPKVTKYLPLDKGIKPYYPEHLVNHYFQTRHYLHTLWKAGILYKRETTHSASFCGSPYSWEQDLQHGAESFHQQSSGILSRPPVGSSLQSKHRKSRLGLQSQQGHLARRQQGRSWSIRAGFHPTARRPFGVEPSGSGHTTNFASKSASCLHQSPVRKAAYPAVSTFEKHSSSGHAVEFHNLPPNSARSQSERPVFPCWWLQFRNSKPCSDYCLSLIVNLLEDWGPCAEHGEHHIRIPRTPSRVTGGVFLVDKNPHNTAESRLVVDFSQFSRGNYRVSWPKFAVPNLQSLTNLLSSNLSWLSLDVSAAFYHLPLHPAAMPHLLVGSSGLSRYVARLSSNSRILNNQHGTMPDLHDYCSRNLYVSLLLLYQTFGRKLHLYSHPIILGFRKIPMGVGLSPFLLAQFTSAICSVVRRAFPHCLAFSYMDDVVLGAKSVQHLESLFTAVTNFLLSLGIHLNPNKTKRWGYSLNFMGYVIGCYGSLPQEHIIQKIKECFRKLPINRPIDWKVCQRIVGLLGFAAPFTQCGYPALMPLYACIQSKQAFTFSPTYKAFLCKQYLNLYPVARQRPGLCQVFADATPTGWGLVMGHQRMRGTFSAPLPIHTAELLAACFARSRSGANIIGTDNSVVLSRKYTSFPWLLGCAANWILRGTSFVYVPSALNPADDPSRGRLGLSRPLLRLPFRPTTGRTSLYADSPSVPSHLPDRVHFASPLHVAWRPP
smiles,measurement,setting,value
"CC(C)(C)C(=O)OCOP(=O)(COCCn1cnc2c(N)ncnc21)OCOC(=O)C(C)(C)C [ADV, adefovir dipivoxil]",serum HBV reduction from baseline after initiation of therapy,"[1]; both patients who developed rtN236T (0626-1537, 0454-2506)",less than 2 log10 copies/mL
same,patients with serum HBV DNA levels <1000 copies/mL at week 96 (or last on-study visit),"[1]; of 79 patients, ADV 10 mg daily for 96 weeks",58 patients
same,reduction in serum HBV DNA,"[1]; patient 0370-3503 (rtK241E+rtK318Q), week 96",> 5 log10
same,serum HBV DNA,"[1]; patient 0370-3503, week 96",3.1 log10 copies/mL
same,serum HBV DNA,"[1]; patient 0370-3503, week 156",3.6 log10 copies/mL
same,median serum HBV DNA decline from baseline to week 48,[2],3.9 log10 copies/mL
same,median serum HBV DNA decline from baseline to week 48,[3],3.5 log10 copies/mL
"Nc1ncnc2c1ncn2CCOCP(=O)(O)O [Adefovir, adefovir]",IC50 Fold Change (Week96/Baseline),[4],0.9 fold
same,IC50 Fold Change (Week96/Baseline),[4]; listed as adefovir,less than 0.9 fold
same,IC50,"[5]; Hepatitis B virus, HepG2, 168 h, read-out: Adefovir IC50 Week 96, patient 0454-2506, week 96 clones with single rtN236T, HepG2, 7 days",1.55 ± 0.91 µM
same,IC50,"[5]; Hepatitis B virus, HepG2, 168 h, read-out: Adefovir IC50 Week 96, patient 0626-1537, week 96 rtN236T clones, HepG2, 7 days",3.64 ± 2.78 µM
same,IC50,[5]; [12],1.47 µM
same,IC50 Fold Change (Week96/Baseline),"[5]; patient 0454-2506, single rtN236T",7.3 fold
same,IC50 Fold Change (Week96/Baseline),"[5]; patient 0626-1537, rtN236T",13.8 fold
same,IC50 Fold Change (rtN236T/Wild-type),[5]; [13],9.6 fold
same,IC50,"[6]; Hepatitis B virus, HepG2, 168 h, read-out: Adefovir IC50 Baseline, patient 0370-3503, baseline clones, HepG2, 7 days",0.16 ± 0.01 µM
same,IC50,"[6]; Hepatitis B virus, HepG2, 168 h, read-out: Adefovir IC50 Baseline, patient 0454-2506, baseline wild-type clones, HepG2, 7 days",0.21 ± 0.01 µM
same,IC50,"[6]; Hepatitis B virus, HepG2, 168 h, read-out: Adefovir IC50 Baseline, patient 0624-1517, baseline clones, HepG2, 7 days",0.21 ± 0.07 µM
same,IC50,"[6]; Hepatitis B virus, HepG2, 168 h, read-out: Adefovir IC50 Baseline, patient 0624-1564, baseline clones, HepG2, 7 days",0.21 ± 0.01 µM
same,IC50,"[6]; Hepatitis B virus, HepG2, 168 h, read-out: Adefovir IC50 Baseline, patient 0626-1537, baseline clones, HepG2 transient transfection, 7 days",0.26 ± 0.17 µM
same,IC50,[6]; [14],0.15 µM
same,IC50 Fold Change from Wild-Type,"[6]; adefovir, patient 0454-2506 wild-type (baseline), reference",1 fold
same,IC50,[7]; Hepatitis B virus,0.24 ± 0.03 µM
same,IC50 Fold Change from Wild-Type,[7]; adefovir,1.3 fold
same,IC50,"[8]; Hepatitis B virus, lab HBV strain, wild-type",0.19 ± 0.03 µM
same,IC50 Fold Change from Wild-Type,"[8]; adefovir, lab HBV strain wild-type, reference",1 fold
same,IC50,"[9]; Hepatitis B virus, patient 0454-2506 derived clone, rtN236T + rtA181T (rtA181T introduced by site-directed mutagenesis)",0.53 ± 0.26 µM
same,IC50 Fold Change from Wild-Type,"[9]; adefovir, patient 0454-2506 derived, rtN236T + rtA181T",2.5 fold
same,IC50,"[10]; read-out: Adefovir IC50 Week 96, patient 0624-1517, week 96 rtA181V clones",0.52 ± 0.11 µM
same,IC50,"[10]; read-out: Adefovir IC50 Week 96, patient 0624-1564, week 96 rtA181V clones",0.62 ± 0.29 µM
same,IC50 Fold Change (Week96/Baseline),"[10]; patient 0624-1517, rtA181V",2.5 fold
same,IC50 Fold Change (Week96/Baseline),"[10]; patient 0624-1564, rtA181V",3.0 fold
"C=C1[C@H](CO)[C@@H](O)C[C@@H]1n1cnc2c(=O)[nH]c(N)nc21 [Entecavir, entecavir]",IC50,[5]; [12],0.00026 µM
same,susceptibility of the rtN236T mutant (in words),[5],remained susceptible
same,IC50 Fold Change (rtN236T/Wild-type),[5]; [13],0.67 fold
same,IC50,[6]; [14],0.00039 µM
Cc1cn([C@@H]2C[C@@H](O)[C@H](CO)O2)c(=O)[nH]c1=O [L-dT],susceptibility of the rtN236T mutant (in words),[5],remained susceptible
same,IC50 Fold Change (rtN236T/Wild-type),[5]; [13],2.4 fold
same,IC50,[5]; [15],0.33 µM
same,IC50,[6]; [16],0.14 µM
"Nc1ccn([C@@H]2CS[C@H](CO)O2)c(=O)n1 [Lamivudine, lamivudine]",IC50,[5]; [12],0.07 µM
same,IC50,"[5]; Hepatitis B virus, read-out: Lamivudine IC50 Week 96, patient 0454-2506, week 96 clones with single rtN236T",0.07 µM
same,lamivudine IC50 change,[5]; rtN236T mutant in vitro,≤ 3.5 fold
COc1ccc(Sc2nc(N)nc3c2ncn3CCOCP(=O)(OCC(F)(F)F)OCC(F)(F)F)cc1 [MCC-478],IC50,[5]; [12],0.25 µM
same,IC50 Fold Change (rtN236T/Wild-type),[5]; [13],8.6 fold
same,IC50,[6]; [14],0.03 µM
"C[C@H](Cn1cnc2c(N)ncnc21)OCP(=O)(O)O [Tenofovir, tenofovir]",IC50 Fold Change (rtN236T/Wild-type),[5]; [13],4.2 fold
same,IC50,[5]; [15],0.55 µM
same,IC50,[6]; [16],0.13 µM
Nc1ncnc2c1ncn2CCOCP(=O)(O)OP(=O)(O)OP(=O)(O)O [adefovir diphosphate],Ki,[11],0.1 µM
